Measured values reported in publication PMC11844072, “Novel 5,6-dichlorobenzimidazole derivatives as dual BRAFWT and BRAFV600E inhibitors: design, synthesis, anti-cancer activity and molecular dynamics simulations” (BMC Chemistry, 2025).

Experiments:
Assay in all cases: NCI 60 single concentration growth inhibition
Type in all cases: cell-based, human
M14 = details: Homo sapiens, M14, Melanoma, read-out: GI%
Method: (§1) The synthesized dichlorobenzimidazoles 10a–p were assayed for their influence on divers cancer cell lines according to the method presented in the Additional file A.
(§2) 5. Screening of cytotoxic activity against a panel of sixty human tumor cell lines
(§3) The selected compounds by NCI were evaluated for their anticancer activity in a two-stage process. First, these compounds were screened against the full NCI 60 cell lines panel at a single high dose of 10 µM. Then, the output from the single dose screen is reported as a mean graph. […]
(§4) at five different minimal concentrations.
(§5) Assay protocol. The human tumor cell lines of the cancer screening panel are grown in RPMI 1640 medium containing 5% fetal bovine serum and 2 mM L-glutamine. For a typical screening experiment, cells are inoculated into 96 well microtiter plates in 100 µL at plating densities ranging from 5000 to 40,000 cells/well depending on the doubling time of individual cell lines. After cell inoculation, the microtiter plates are incubated at 37 °C, 5% CO 2, 95% air and 100% relative humidity for 24 h prior to addition of the experimental drugs.
(§6) After 24 h, two plates of each cell line are fixed in situ with TCA, to represent a measurement of the cell population for each cell line at the time of drug addition (Tz). The experimental drugs are solubilized in dimethyl sulfoxide at 400-fold the desired final maximum test concentration and stored frozen prior to use. At the time of drug addition, an aliquot of frozen concentrate is thawed and diluted to twice the desired final maximum test concentration with complete medium containing 50 µg/mL gentamicin. Additional four, 10-fold or ½ log serial dilutions are made to provide a total of five drug concentrations plus control.
(§7) Aliquots of […] of these different drug dilutions are added to the appropriate microtiter wells already containing […] of medium, resulting in the required final drug concentrations.
(§8) Following drug addition, the plates are incubated for an additional 48 h at 37 °C, 5% CO 2, 95% air, and 100% relative humidity. For adherent cells, the assay is terminated by the addition of cold TCA.
(§9) Cells are fixed in situ by the gentle addition of 50 µL of cold 50% (w/v) TCA (final concentration, 10% TCA) and incubated for 60 min at 4 °C. The supernatant is discarded, and the plates are washed five times with tap water and air dried. Sulforhodamine B (SRB) solution ([…]) at 0.4% (w/v) in 1% acetic acid is added to each well, and plates are incubated for 10 min at room temperature. After staining, unbound dye is removed by washing five times with 1% acetic acid and the plates are air dried. Bound stain is subsequently solubilized with 10 mM trizma base, and the absorbance is read on an automated plate reader at a wavelength of 515 nm. For suspension cells, the methodology is […]
(§10) the same except that the assay is terminated by fixing settled cells at the bottom of the wells by gently adding 50 µl of 80% TCA (final concentration, 16% TCA). Using the seven absorbance measurements [time zero, (Tz), control growth, (C), and test growth in the presence of drug at the five concentration levels (Ti)], the percentage growth is calculated at each of the drug concentrations […]
(§11) Percentage growth inhibition is calculated as: [(Ti Tz)/(C–Tz)] x 100 for concentrations for which Ti>/=Tz and [(Ti-Tz)/Tz] x 100 for concentrations for which Ti < Tz.
(§12) Three dose response parameters are calculated for each experimental agent. Growth […]
(§13) concentration resulting in a 50% reduction in the net protein increase (as measured by SRB staining) in control cells during the drug incubation. The drug concentration resulting in total growth inhibition (TGI) is calculated from Ti = Tz. […]
(§14) reduction in the measured protein at the end of the drug treatment as compared to that at the beginning) indicating a net loss of cells following treatment is calculated from [(Ti–Tz)/Tz] x 100 =
(§15) _50. Values are calculated for each of these three parameters if the level of activity is reached; […]

NCI-H226 = details: Homo sapiens, NCI-H226, Non-small cell lung cancer, read-out: GI%
Method: as §1, §2, §3, §4, §5, §6, §7, §8, §9, §10, §11, §12, §13, §14, §15

MDA-MB-435 = details: Homo sapiens, MDA-MB-435, Melanoma, read-out: GI%
Method: as §1, §2, §3, §4, §5, §6, §7, §8, §9, §10, §11, §12, §13, §14, §15

EKVX = details: Homo sapiens, Non-small cell lung cancer, read-out: GI%
Method: as §1, §2, §3, §4, §5, §6, §7, §8, §9, §10, §11, §12, §13, §14, §15

MOLT-4 = details: Homo sapiens, MOLT-4, Leukemia, read-out: GI%
Method: as §1, §2, §3, §4, §5, §6, §7, §8, §9, §10, §11, §12, §13, §14, §15

CCRF-CEM = details: Homo sapiens, Leukemia, read-out: GI%
Method: as §1, §2, §3, §4, §5, §6, §7, §8, §9, §10, §11, §12, §13, §14, §15

UACC-257 = details: Homo sapiens, UACC-257, Melanoma, read-out: GI%
Method: as §1, §2, §3, §4, §5, §6, §7, §8, §9, §10, §11, §12, §13, §14, §15

OVCAR-5 = details: Homo sapiens, OVCAR-5, Ovarian cancer, read-out: GI%
Method: as §1, §2, §3, §4, §5, §6, §7, §8, §9, §10, §11, §12, §13, §14, §15

HOP-62 = details: Homo sapiens, HOP-62, Non-small cell lung cancer, read-out: GI%
Method: as §1, §2, §3, §4, §5, §6, §7, §8, §9, §10, §11, §12, §13, §14, §15

RPMI-8226 = details: Homo sapiens, RPMI-8226, Leukemia, read-out: GI%
Method: as §1, §2, §3, §4, §5, §6, §7, §8, §9, §10, §11, §12, §13, §14, §15

SK-MEL-2 = details: Homo sapiens, SK-MEL-2, Melanoma, read-out: GI%
Method: as §1, §2, §3, §4, §5, §6, §7, §8, §9, §10, §11, §12, §13, §14, §15

SF-295 = details: Homo sapiens, SF-295, CNS cancer, read-out: GI%
Method: as §1, §2, §3, §4, §5, §6, §7, §8, §9, §10, §11, §12, §13, §14, §15

HL-60(TB) = details: Homo sapiens, Leukemia, read-out: GI%
Method: as §1, §2, §3, §4, §5, §6, §7, §8, §9, §10, §11, §12, §13, §14, §15

HS 578T = details: Homo sapiens, Breast cancer, read-out: GI%
Method: as §1, §2, §3, §4, §5, §6, §7, §8, §9, §10, §11, §12, §13, §14, §15

HCT-116 = details: Homo sapiens, HCT-116, Colon cancer, read-out: GI%
Method: as §1, §2, §3, §4, §5, §6, §7, §8, §9, §10, §11, §12, §13, §14, §15

SR = details: Homo sapiens, Leukemia, read-out: GI%
Method: as §1, §2, §3, §4, §5, §6, §7, §8, §9, §10, §11, §12, §13, §14, §15

A498 = details: Homo sapiens, A498, Renal cancer, read-out: GI%
Method: as §1, §2, §3, §4, §5, §6, §7, §8, §9, §10, §11, §12, §13, §14, §15

786-0 = details: Homo sapiens, 786-0, Renal cancer, read-out: GI%
Method: as §1, §2, §3, §4, §5, §6, §7, §8, §9, §10, §11, §12, §13, §14, §15

NCI-H23 = details: Homo sapiens, NCI-H23, Non-small cell lung cancer, read-out: GI%
Method: as §1, §2, §3, §4, §5, §6, §7, §8, §9, §10, §11, §12, §13, §14, §15

A549/ATCC = details: Homo sapiens, Non-small cell lung cancer, read-out: GI%
Method: as §1, §2, §3, §4, §5, §6, §7, §8, §9, §10, §11, §12, §13, §14, §15

CAKI-1 = details: Homo sapiens, CAKI-1, Renal cancer, read-out: GI%
Method: as §1, §2, §3, §4, §5, §6, §7, §8, §9, §10, §11, §12, §13, §14, §15

SF-268 = details: Homo sapiens, SF-268, CNS cancer, read-out: GI%
Method: as §1, §2, §3, §4, §5, §6, §7, §8, §9, §10, §11, §12, §13, §14, §15

SMILES	inhibition at 10 µM (M14) [%]	inhibition at 10 µM (NCI-H226) [%]	inhibition at 10 µM (MDA-MB-435) [%]	inhibition at 10 µM (EKVX) [%]	inhibition at 10 µM (MOLT-4) [%]	inhibition at 10 µM (CCRF-CEM) [%]	inhibition at 10 µM (UACC-257) [%]	inhibition at 10 µM (OVCAR-5) [%]	inhibition at 10 µM (HOP-62) [%]	inhibition at 10 µM (RPMI-8226) [%]	inhibition at 10 µM (SK-MEL-2) [%]	inhibition at 10 µM (SF-295) [%]	inhibition at 10 µM (HL-60(TB)) [%]	inhibition at 10 µM (HS 578T) [%]	inhibition at 10 µM (HCT-116) [%]	inhibition at 10 µM (SR) [%]	inhibition at 10 µM (A498) [%]	inhibition at 10 µM (786-0) [%]	inhibition at 10 µM (NCI-H23) [%]	inhibition at 10 µM (A549/ATCC) [%]	further results
COc1ccc(-c2nc3cc(Cl)c(Cl)cc3n2CC(=O)NN=Cc2ccc(OC)c(O)c2)cc1 [Compound 10k, 2-(5,6-Dichloro-2-(4-methoxyphenyl)-1H-benzo[d]imidazol-1-yl)-N'-(3-hydroxy-4-methoxybenzylidene)acetohydrazide]	34.7	48.1	46.8	56.4	76.1	43.8	40.1	< 5	< 5	38.8	40.2	50	60.8	27.4	22	52.2	29.7	25.3	21.1	49.9	inhibition at 10 µM (CAKI-1): 48.2%; inhibition at 10 µM (SF-268): 45.6%
COc1ccc(-c2nc3cc(Cl)c(Cl)cc3n2CC(=O)NN=Cc2ccc(O)c(OC)c2)cc1 [Compound 10l, 2-(5,6-Dichloro-2-(4-methoxyphenyl)-1H-benzo[d]imidazol-1-yl)-N'-(4-hydroxy-3-methoxybenzylidene)acetohydrazide]	33	47.5	42.2	51.9	70.8	46.9	36.3	< 5	12.4	48.3	18.6	38.1	44.5	32.7	31.6	49.1	16.2	30.7	15	35.4	inhibition at 10 µM (CAKI-1): 55.3%; inhibition at 10 µM (SF-268): 53.7%
COC(=O)COc1cc(C=NNC(=O)Cn2c(-c3ccc(OC)cc3)nc3cc(Cl)c(Cl)cc32)ccc1OC [Compound 10o, Methyl-2-(5-((2-(2-(5,6-dichloro-2-(4-methoxyphenyl)-1H-benzo[d]imidazol-1-yl)acetyl)hydrazono)methyl)-2-methoxyphenoxy)acetate]	36.5	10.2	45.5	14	40.4	16.9	41.4	< 5	< 5	17.9	26.6	< 5	< 5	128	22.9	90.9	< 5	11.9	7.03	8.33	inhibition at 10 µM (CAKI-1): 37%; inhibition at 10 µM (SF-268): 18.6%
